According to ChEMBL document CHEMBL1155466, “Structure-activity relationships of 6-methyl-benzo[b]thiophene-2-carboxylic acid (1-[(S)-1-benzyl-4-[4-(tetrahydropyran-4-ylmethyl)piperazin-1-yl]butylcarbamoyl]cyclopentyl)amide, potent antagonist of the neurokinin-2 receptor” (J Med Chem, 2010):
Activity calls are given as the source filed them. The rule behind the calls is not given here.

Columns and labels:
[1] = target: T1, Substance-K receptor (Cavia porcellus) (UniProt Q64077); test: Antagonist activity at NK2 receptor in Dunkin-Hartley guinea pig colon smooth muscle assessed as inhibition of [beta-Ala8]NKA(4-10)-induced tissue contraction in presence of NK1 receptor antagonist SR-140333; assay type: functional, tissue-based
T1 sequence (whole entry): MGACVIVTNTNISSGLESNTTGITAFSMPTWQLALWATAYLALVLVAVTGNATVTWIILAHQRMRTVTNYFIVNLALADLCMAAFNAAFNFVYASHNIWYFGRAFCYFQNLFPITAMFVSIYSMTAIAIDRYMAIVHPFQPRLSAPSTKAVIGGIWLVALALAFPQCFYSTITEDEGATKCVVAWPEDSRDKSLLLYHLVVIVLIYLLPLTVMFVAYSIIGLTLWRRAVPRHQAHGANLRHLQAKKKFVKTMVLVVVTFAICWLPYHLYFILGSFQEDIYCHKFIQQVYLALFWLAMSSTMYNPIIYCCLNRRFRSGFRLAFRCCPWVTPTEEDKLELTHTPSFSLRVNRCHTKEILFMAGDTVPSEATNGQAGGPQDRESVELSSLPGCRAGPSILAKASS

[2] = Apparent permeability from apical to basolateral side of human Caco-2 cells at 100 uM
Cavia porcellus = test: Inhibition of [beta-Ala8]NKA(4-10)-induced colonic contractions in Dunkin-Hartley guinea pig at 3 umol/kg, iv after 4 hrs relative to control; assay type: functional
Substance-K receptor [3] = target: T2, Substance-K receptor (Homo sapiens, UniProt P21452); test: Antagonist activity at NK2 receptor in human urinary bladder assessed as inhibition of [beta-Ala8]NKA(4-10)-induced tissue contractions; assay type: functional; conditions: read-out: pA2 (converted)
T2 sequence (P21452 whole entry): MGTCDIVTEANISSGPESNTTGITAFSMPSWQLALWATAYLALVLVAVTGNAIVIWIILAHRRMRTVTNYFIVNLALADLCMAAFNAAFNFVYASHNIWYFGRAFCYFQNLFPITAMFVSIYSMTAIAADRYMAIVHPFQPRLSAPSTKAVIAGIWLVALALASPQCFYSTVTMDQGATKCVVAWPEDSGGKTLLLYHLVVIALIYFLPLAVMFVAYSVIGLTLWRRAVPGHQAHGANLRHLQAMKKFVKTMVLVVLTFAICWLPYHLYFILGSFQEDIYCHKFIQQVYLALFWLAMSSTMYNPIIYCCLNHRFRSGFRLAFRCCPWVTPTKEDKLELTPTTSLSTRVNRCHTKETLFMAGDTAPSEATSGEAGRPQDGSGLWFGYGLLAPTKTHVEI

Homo sapiens = test: Inhibition of [beta-Ala8]NKA(4-10)-induced colonic contractions […] at 10 umol/kg, id relative to control; assay type: functional, organism-based
Substance-K receptor [4] = target: T2, Substance-K receptor; test: Displacement of [3H]neurokinin A from human NK2 receptor

Row | pKb [1] | Papp A→B at 100 µM [2] [×10⁻⁶ cm/s] | Kb (Substance-K receptor [3]) [nM] | Ki (Substance-K receptor [4]) [nM] | SMILES | Imax (Cavia porcellus) [%] | Activity (Homo sapiens)
1 | 8.6 | 11.2 | 0.2 | – | Cc1ccc2cc(C(=O)NC3(C(=O)N[C@@H](CCCN4CCN(CC5CCOCC5)CC4)Cc4ccccc4)CCCC3)sc2c1 | 100 | Active
2 | 7.6 | 13.7 | – | 0.251 | O=C(NC1(C(=O)N[C@@H](CCCN2CCN(CC3CCOCC3)CC2)Cc2ccccc2)CCCC1)c1cc2cc(Cl)ccc2o1 | 100 | –
